Literature values in US20250326771A1, “PIPERAZINE DERIVATIVES USEFUL IN HIV THERAPY” (VIIV HEALTHCARE COMPANY, priority 2022, published 2025).

Experiments:
cell-associated HIV RNA = settings: primary cells / resting CD4+ T cells; cited from earlier work
[1] = system: Jurkat HIV-luciferase clones; settings: HIV latency reversal studies; cited from earlier work
p100/p52 = settings: cited from earlier work

CC[C@H](NC(=O)[C@H](C)NC)C(=O)N1C[C@@H](O)C[C@H]1Cc1c(-c2[nH]c3cc(F)ccc3c2C[C@@H]2C[C@H](O)CN2C(=O)[C@H](CC)NC(=O)[C@H](C)NC)[nH]c2cc(F)ccc12 [Birinapant TL32711, Birinapant]
not potent: HIV caRNA induction (cell-associated HIV RNA) | potency in Jurkat [1] | p100-p52 conversion (p100/p52)
